Columns and labels:
[1] = tested on: IL-6 and IL-8 secretion in BEAS-2B cells; assay: Particle-induced secretion of pro-inflammatory cytokines (ELISA) in BEAS-2B cells; format: cell-based
Procedure: (§1) Secretion of the pro-inflammatory cytokines interleukin (IL)-6, IL-8 (as well as GM-CSF and MCP-1) into cell media in response to particle exposure was measured in A549 and BEAS-2B cells using the following method.
(§2) Lung epithelial cells were seeded at 5×10^4 in 24-well plates. After pre-incubation with NBMI, the anti-oxidant compound, N-acetyl-L-cysteine (NAC), which was used as a positive control, or vehicle, for 3 hours the medium was removed.
(§3) Fresh media containing various particles (as below) in different concentrations was in a total volume of 0.5 ml for an additional 24 hours. The supernatants were then separated from the cells by centrifugation.
(§4) IL-8, IL-6, GM-CSF and MCP-1 were measured in the cell free fluid using the DuoSet ELISA Development kit (R&D Systems, Abingdon, UK) according to manufacturer's protocol.
(§5) Exposure to medium only served as negative control. Each experiment was performed twice with 4 replicates.
(§6) The effect of pre-incubation with 50 μM NBMI on particle-induced cytokine formation was tested at various concentrations of relevant particles.

[2] = tested on: cigarette smoke (CS)-induced airway disease; assay: In vivo smoking mouse study I (14-day cigarette smoke exposure); set-up: species or system BALB/c mice
Procedure: A mouse model of cigarette smoke (CS)-induced airway disease was developed, in which four groups of BALB/c mice were exposed to CS (nose-only) using a cigarette smoking machine that produces a combination of side-stream and mainstream smoke from filtered research cigarettes, 7 days a week over 2 weeks.
As part of a 14-day dose-finding study, three groups of mice were administered NMBI subcutaneously (5, 30 or 150 mg/kg) before each exposure to CS. Inflammatory cell counts in bronchoalveolar lavage (BAL), flow cytometry (FACS) analysis and cytokine analysis in BAL were carried out.
Female BALB/c mice (Harlem laboratories, Netherlands) were used in this study. They were housed in plastic cages with absorbent bedding material and were maintained on a 12 hour daylight cycle. Food and water were provided ad libitum. Their care and the experimental protocols were approved by the Regional Ethics Committee on Animal Experiments in Umeå. Mice were 12 weeks of age when the cigarette exposure protocol started.
Animals were subjected to inhaled CS (both side-stream and main-stream smoke). The CS exposure was performed in a microprocessor-controlled cigarette smoking machine (TE-10, Teague Enterprises, CA, USA) that produces smoke from research cigarettes (1R5F, University of Kentucky, Lexington, Ky., USA).
Cigarettes are automatically loaded into a wheel, lit, puffed and ejected. Each cigarette was smoked for 10 minutes and the airflow through the machine was set to 12 L/min. Cigarettes were stored at −20° C. until needed. Mice were subjected to 4 cigarettes every 10 minutes×3 (i.e. 12 cigarettes over 30 minutes), once a day, 7 days a week, over two weeks. The smoke was transferred into a smoke tower (EMMS, UK) providing equal and simultaneous exposure to the CS.
Mice were placed into plastic chambers and subjected to CS by “nose-only” inhalation. Control mice were handled every day and breathed room-air, but were not taken out of their cages.
Accordingly, the 5 treatment groups are as follows: • 1. Daily exposure to clean air (Placebo Group) • 2. Daily exposure to CS (CS-Exposed Placebo Group) • 3. Daily exposure to CS; treated with NBMI at a 5 mg/kg dose (NBMI 5 mg/kg Group) • 4. Daily exposure to CS; treated with NBMI at a 30 mg/kg dose (NBMI 30 mg/kg Group) • 5. Daily exposure to CS; treated with NBMI at a 150 mg/kg dose (NBMI 150 mg/kg Group)
On Day 15, mice were exsanguinated and subjected to bronchoalveolar lavage (BAL). The lungs were lavaged four times via the tracheal tube with a total volume of 1 mL+3×1 mL Ca^2+/Mg^2+ free Hanks' balanced salt solution (HBSS, Sigma-Aldrich, Steinheim, Germany).
The BAL fluid was then immediately centrifuged (10 minutes, 4° C., 1750 rpm). After removing the supernatant until further analysis, the cell pellet was re-suspended and then diluted with 0.5 mL PBS. Leukocytes were counted manually in a hemocytometer so that 20,000 cells could be loaded and centrifuged using a Cytospin® centrifuge (Shandon® cytospin 3 cyto-centrifuge, cell preparation system).
Cytocentrifuged preparations were stained with May-Grünwald-Giemsa reagent and differential cell counts of pulmonary inflammatory cells (macrophages, neutrophils, lymphocytes, and eosinophils) were made using standard morphological criteria and counting 300 cells per cytospin preparation.
Inflammatory mediators in BAL and serum were analyzed for the presence of interleukin (IL)-1α, IL-1β, IL-2, IL-3, IL-4, IL-5, IL-6, IL-9, IL-10, IL-12p40, IL-12p70, IL-13, IL17, Eotaxin, G-CSF, INFγ, GM-CSF, KC, MCP-1, MIP-1α, MIP-Iβ, RANTES and TNFα. All cytokine analyses were performed simultaneously with a multiplex kit (BioPlex™ Pro Mouse Cytokine 23-plex panel) according to the manufacturer's instructions (Bio-Rad) and analyzed on a Bio-Plex™ system (Luminex Bio-Plex™ 200 System, Bio-Rad, Hercules, Calif.).
Leukocytes from BAL were analyzed with flow cytometry using a BD FACSort™ (Becton Dickinson, San Jose, Calif.). […]

[3] = tested on: IL-6 and IL-8 secretion in A549 cells; assay: Particle-induced secretion of pro-inflammatory cytokines (ELISA) in A549 cells; format: cell-based; conditions: A549 cells
Procedure: as §1, §2, §3, §4, §5, §6

[4] = TiO2 P25 100 μg/cm^2, pre-incubation 50 μM NBMI
[5] = Urban Dust 100 μg/cm^2, pre-incubation 50 μM NBMI
[6] = TiO2 P25 75 μg/cm^2, pre-incubation 50 μM NBMI

- wounds at injection site ([2]; 150 mg/kg s.c., 14 days): established wounds in the neck
- weight change from Day 1 to Day 15 ([2]; CS-exposed, regardless of dose of NBMI): lost weight significantly
- final weight ([2]; Day 15, 5 mg/kg s.c., CS-exposed, vs CS-exposed 20.3±0.3 g, p<0.05): 19.5 ± 0.3 g
SMILES: O=C(NCCS)c1cccc(C(=O)NCCS)c1 [NBMI, N,N-bis-2-mercaptoethyl isophthalamide]
- reduction of secretion of IL-6 [1, 4]: 37%
- reduction of secretion of IL-8 [1, 4]: 49%
- reduction of secretion of IL-6 [1, 5]: 47%
- MIP-1α levels in BAL vs CS-Exposed Placebo Group ([2]; 5 mg/kg s.c., p<0.05): lowered
- IL-10 level in serum ([2]; 30 mg/kg s.c.): increased levels
- Eotaxin level in serum vs CS-Exposed Placebo Group ([2]; 150 mg/kg s.c.): significantly lowered levels
- IL-1β level in serum vs CS-Exposed Placebo Group ([2]; 150 mg/kg s.c.): significantly lowered levels
- IL-3 level in serum vs CS-Exposed Placebo Group ([2]; 150 mg/kg s.c.): significantly lowered levels
- IL-6 level in serum vs CS-Exposed Placebo Group ([2]; 150 mg/kg s.c.): significantly lowered levels
- MIP-1α level in serum vs CS-Exposed Placebo Group ([2]; 150 mg/kg s.c.): significantly lowered levels
- RANTES level in serum vs CS-Exposed Placebo Group ([2]; 150 mg/kg s.c.): significantly lowered levels
- ulceration ([2]; 5 and 30 mg/kg s.c., 14 days): no signs of ulceration
- neutrophils in BAL vs mice just exposed to CS ([2]; Day 15, 30 mg/kg s.c.): significantly lower numbers of neutrophils
- neutrophils in BAL vs mice just exposed to CS ([2]; Day 15, 150 mg/kg s.c.): significantly lower numbers of neutrophils
- CD4 cells and CD8 cells in BAL fluid ([2]; all groups (5, 30, 150 mg/kg)): no significant differences
- reduction of secretion of IL-6 [3, 6]: 38%
- reduction of secretion of IL-8 [3, 6]: 29%
- reduction of secretion of IL-6 [3, 5]: 38%
- reduction of secretion of IL-8 [3, 5]: 30%

Reference: patent US9782368B2, “Use of N,N-bis-2-mercaptoethyl isophthalamide” (EMERAMED LIMITED, priority 2014, dated 2017)
